In brackets after ≈: the same amount, converted by molar mass.
What was measured:
[1] = tested on: Streptococcus sp.; experiment: in vitro antibacterial evaluation, MIC by broth dilution; assay type: cell-based; details: broth dilution, 18 hours at 35° C.
Outline: (§1)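 Read-out: the lowest concentration at which the test strain fails to grow. Serial dilutions (64-0.06 μg/mL) in Muller-Hinton II […], 5×10^5 CFU/mL inoculum, NCCLS M7-A2 procedure.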

[2] = tested on: Enterococcus sp.; experiment: as above; assay type: cell-based; details: broth dilution, 18 hours at 35° C.
Outline: as §1

[3] = tested on: Staphylococcus sp.; experiment: as above; assay type: cell-based; details: broth dilution, 18 hours at 35° C.
Outline: as §1

[4] = tested on: Staphylococcus aureus-SMITH (GC 4543); experiment: acute lethal infection in mice; assay type: in vivo; details: acute lethal infection, female CD-1 mice, intraperitoneal challenge, intravenous 30 min. after infection, 7 day survival
Outline: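 Survival at 7 days, pooled from three independent tests, yields ED50 values. Treatment is intravenous, 30 min after ip infection of female CD-1 mice, using an inoculum lethal to untreated controls within 24-48 hr.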

[5] = tested on: Escherichia coli; experiment: in vitro antibacterial evaluation, MIC by broth dilution; assay type: cell-based; details: 18 hours at 35° C.

CCCOc1ccc(COCC2OC(OC3C(CO)OC(Oc4ccc(CC5NC(=O)C(C(C)c6ccccc6)NC(=O)CNC(=O)C(CO)NC(=O)C(C(O)C6CNC(=N)N6C6OC(CO)C(O)C(O)C6O)NC(=O)C(C(O)C6CNC(=N)N6)NC5=O)cc4)C(O)C3O)C(O)C(O)C2O)cc1 (stereo not drawn) [Example 235, Cyclo[glycyl-β-methylphenylalanyl-O-[4-O-[6-O-(4-propoxybenzyl)hexopyranosyl]hexopyranosyl]tyrosyl-3-(2-iminoimidazolidin-4-yl)seryl-3-(3-hexopyranosyl-2-iminoimidazolidin-4-yl)serylseryl]]
MIC Streptococcus agalactiae (GC 4564) [1]: 0.25 to 0.5 µg/mL
MIC Streptococcus pneumoniae (ATCC 6301) [1]: 0.12 µg/mL (≈ 0.0831 µM)
MIC Streptococcus pneumoniae (GC 1894) [1]: <0.06 µg/mL
MIC Streptococcus pneumoniae (GC 4565) [1]: <0.06 to 0.12 µg/mL
MIC Streptococcus pyogenes (GC 4563) [1]: 0.25 µg/mL (≈ 0.173 µM)
MIC Streptococcus pneumoniae (ATCC 6301) ([1]; inoculum 5×10^5 CFU/mL, strain ATCC 6301): 0.12 µg/mL (≈ 0.0831 µM)
MIC Streptococcus pneumoniae (GC 1894) ([1]; inoculum 5×10^5 CFU/mL, strain GC 1894): <0.06 µg/mL
MIC Streptococcus pyogenes (GC 4563) ([1]; inoculum 5×10^5 CFU/mL, strain GC 4563): 0.25 µg/mL (≈ 0.173 µM)
MIC Streptococcus agalactiae (GC 4564) ([1]; inoculum 5×10^5 CFU/mL, strain GC 4564): 0.25 to 0.5 µg/mL
MIC Streptococcus pneumoniae (GC 4565) ([1]; inoculum 5×10^5 CFU/mL, strain GC 4565): <0.06 to 0.12 µg/mL
MIC Enterococcus avium (GC 4558) [2]: 4 µg/mL (≈ 2.77 µM)
MIC Enterococcus faecalis (ATCC 29212) [2]: 4 µg/mL (≈ 2.77 µM)
MIC Enterococcus faecalis (GC 2242) [2]: 4 µg/mL (≈ 2.77 µM)
MIC Enterococcus faecalis (GC 2691) [2]: 4 µg/mL (≈ 2.77 µM)
MIC Enterococcus faecalis (GC 3059) [2]: 4 to 8 µg/mL
MIC Enterococcus faecalis (GC 4552) [2]: 4 µg/mL (≈ 2.77 µM)
MIC Enterococcus faecalis (GC 4553) [2]: 4 µg/mL (≈ 2.77 µM)
MIC Enterococcus faecalis (GC 4554) [2]: 4 to 8 µg/mL
MIC Enterococcus faecalis (GC 6189) [2]: 4 µg/mL (≈ 2.77 µM)
MIC Enterococcus faecium (GC 2243) [2]: 4 µg/mL (≈ 2.77 µM)
MIC Enterococcus faecium (GC 4556) [2]: 4 µg/mL (≈ 2.77 µM)
MIC Enterococcus faecium (GC 4557) [2]: 0.5 to 2 µg/mL
MIC Enterococcus faecalis (ATCC 29212) ([2]; strain ATCC 29212): 4 µg/mL (≈ 2.77 µM)
MIC Enterococcus faecium (GC 2243) ([2]; strain GC 2243): 4 µg/mL (≈ 2.77 µM)
MIC Enterococcus faecalis (GC 4552) ([2]; strain GC 4552): 4 µg/mL (≈ 2.77 µM)
MIC Enterococcus faecalis (GC 4553) ([2]; strain GC 4553): 4 µg/mL (≈ 2.77 µM)
MIC Enterococcus faecalis (GC 4554) ([2]; strain GC 4554): 4 to 8 µg/mL
MIC Enterococcus faecium (GC 4556) ([2]; strain GC 4556): 4 µg/mL (≈ 2.77 µM)
MIC Enterococcus faecium (GC 4557) ([2]; strain GC 4557): 0.5 to 2 µg/mL
MIC Enterococcus avium (GC 4558) ([2]; strain GC 4558): 4 µg/mL (≈ 2.77 µM)
MIC Enterococcus faecalis (GC 6189) ([2]; strain GC 6189): 4 µg/mL (≈ 2.77 µM)
MIC Enterococcus faecalis (GC 2242) ([2]; inoculum 5×10^5 CFU/mL, strain GC 2242): 4 µg/mL (≈ 2.77 µM)
MIC Enterococcus faecalis (GC 2691) ([2]; inoculum 5×10^5 CFU/mL, strain GC 2691): 4 µg/mL (≈ 2.77 µM)
MIC Enterococcus faecalis (GC 3059) ([2]; inoculum 5×10^5 CFU/mL, strain GC 3059): 4 to 8 µg/mL
MIC Coagulase Negative Staphylococcus (GC 4547) [3]: 0.5 to 1 µg/mL
MIC Coagulase Negative Staphylococcus (GC 4548) [3]: 0.25 to 0.5 µg/mL
MIC Coagulase Negative Staphylococcus (GC 4549) [3]: 0.25 to 0.5 µg/mL
MIC Coagulase Negative Staphylococcus (GC 4551) [3]: 0.5 to 1 µg/mL
MIC Coagulase Negative Staphylococcus (GC 6257) [3]: 0.25 to 0.5 µg/mL
MIC Staphylococcus aureus (ATCC 29213) [3]: 0.5 to 1 µg/mL
MIC Staphylococcus aureus (GC 1131) [3]: 1 to 2 µg/mL
MIC Staphylococcus aureus (GC 3051) [3]: 0.5 to 2 µg/mL
MIC Staphylococcus aureus (GC 3053) [3]: 1 to 2 µg/mL
MIC Staphylococcus aureus (GC 4541) [3]: 0.5 to 1 µg/mL
MIC Staphylococcus aureus (GC 4542) [3]: 0.5 to 2 µg/mL
MIC Staphylococcus aureus (GC 4544) [3]: 1 to 2 µg/mL
MIC Staphylococcus aureus (GC 4545) [3]: 1 to 2 µg/mL
MIC Staphylococcus aureus-SMITH (GC 4543) [3]: 0.5 to 1 µg/mL
MIC Staphylococcus haemolyticus (GC 4546) [3]: 0.25 to 0.5 µg/mL
MIC Staphylococcus aureus (ATCC 29213) ([3]; strain ATCC 29213): 0.5 to 1 µg/mL
MIC Staphylococcus aureus (GC 1131) ([3]; strain GC 1131): 1 to 2 µg/mL
MIC Staphylococcus aureus (GC 3051) ([3]; strain GC 3051): 0.5 to 2 µg/mL
MIC Staphylococcus aureus (GC 3053) ([3]; strain GC 3053): 1 to 2 µg/mL
MIC Staphylococcus aureus (GC 4541) ([3]; strain GC 4541): 0.5 to 1 µg/mL
MIC Staphylococcus aureus (GC 4542) ([3]; strain GC 4542): 0.5 to 2 µg/mL
MIC Staphylococcus aureus-SMITH (GC 4543) ([3]; strain GC 4543): 0.5 to 1 µg/mL
MIC Staphylococcus aureus (GC 4544) ([3]; strain GC 4544): 1 to 2 µg/mL
MIC Staphylococcus aureus (GC 4545) ([3]; strain GC 4545): 1 to 2 µg/mL
MIC Staphylococcus haemolyticus (GC 4546) ([3]; strain GC 4546): 0.25 to 0.5 µg/mL
MIC Coagulase Negative Staphylococcus (GC 4547) ([3]; strain GC 4547): 0.5 to 1 µg/mL
MIC Coagulase Negative Staphylococcus (GC 4548) ([3]; strain GC 4548): 0.25 to 0.5 µg/mL
MIC Coagulase Negative Staphylococcus (GC 4549) ([3]; strain GC 4549): 0.25 to 0.5 µg/mL
MIC Coagulase Negative Staphylococcus (GC 4551) ([3]; strain GC 4551): 0.5 to 1 µg/mL
MIC Coagulase Negative Staphylococcus (GC 6257) ([3]; strain GC 6257): 0.25 to 0.5 µg/mL
median effective dose (ED50), Staphylococcus aureus-SMITH (GC 4543) [4]: 0.59 mg/kg
MIC Escherichia coli (GC 4560) [5]: 0.5 to 1 µg/mL

— patent US6914045B2, “Glycopeptide antibiotics” (Wyeth Holdings Corporation, priority 2001, dated 2005)
